From patent US7227038B2, “Adamantane derivatives, processes for their preparation and pharmaceutical composition containing them” (AstraZeneca AB, priority 2003, dated 2007)
Counter-ions that a name gives are not always drawn.

target: T1, P2X7 receptor (Homo sapiens, UniProt Q99572); experiment: bbATP-induced ethidium bromide uptake (fluorescence) in THP-1 cells, P2X7 receptor antagonist activity; type: cell-based; conditions: 10^-5M bbATP, 37° C. for one hour, read-out: pIC50 (negative logarithm of the concentration of test compound necessary to reduce the bbATP agonist activity by 50%) (converted)
T1 construct: 200 μl of a suspension of THP-1 cells; endogenous in cells; host or cells: THP-1 cells
T1 sequence (Q99572 1-595): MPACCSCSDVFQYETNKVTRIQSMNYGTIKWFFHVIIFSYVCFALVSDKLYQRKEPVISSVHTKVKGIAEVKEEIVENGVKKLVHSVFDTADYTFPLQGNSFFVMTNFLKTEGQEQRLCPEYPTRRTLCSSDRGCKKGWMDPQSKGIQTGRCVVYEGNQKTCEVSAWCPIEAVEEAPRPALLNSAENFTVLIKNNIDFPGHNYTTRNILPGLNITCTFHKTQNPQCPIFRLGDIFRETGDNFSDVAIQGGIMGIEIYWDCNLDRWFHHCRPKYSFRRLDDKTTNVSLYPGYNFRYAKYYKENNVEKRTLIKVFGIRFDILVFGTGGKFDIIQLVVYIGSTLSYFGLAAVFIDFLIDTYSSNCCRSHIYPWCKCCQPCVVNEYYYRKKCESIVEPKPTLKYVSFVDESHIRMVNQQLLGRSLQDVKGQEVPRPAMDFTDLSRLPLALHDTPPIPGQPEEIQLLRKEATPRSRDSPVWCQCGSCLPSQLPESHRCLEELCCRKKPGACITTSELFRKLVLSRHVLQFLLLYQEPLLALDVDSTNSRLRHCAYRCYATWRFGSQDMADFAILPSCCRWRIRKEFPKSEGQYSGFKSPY
Source text: Certain compounds such as benzoylbenzoyl adenosine triphosphate (bbATP) are known to be agonists of the P2X7 receptor, effecting the formation of pores in the plasma membrane (Drug Development Research (1996), 37(3), p.126). Consequently, when the receptor is activated using bbATP in the presence of ethidium bromide (a fluorescent DNA probe), an increase in the fluorescence of intracellular DNA-bound ethidium bromide is observed. The increase in fluorescence can be used as a measure of P2X7 receptor activation and therefore to quantify the effect of a compound on the P2X7 receptor.
In this manner, each of the title compounds of the Examples was tested for antagonist activity at the P2X7 receptor. Thus, the test was performed in 96-well flat bottomed microtitre plates, the wells being filled with 250 μl of test solution comprising 200 μl of a suspension of THP-1 cells (2.5×10^6 cells/ml) containing 10^−4M ethidium bromide, 25 μl of a high potassium buffer solution containing 10^−5M bbATP, and 25 μl of the high potassium buffer solution containing 3×10^−5M test compound. The plate was covered with a plastics sheet and incubated at 37° C. for one hour. The plate was then read in a Perkin-Elmer fluorescent plate reader, excitation 520 nm, emission 595 nm, slit widths: Ex 15 nm, Em 20 nm. […]

First: CN(C)C[C@H](O)Cc1ccc(Cl)c(C(=O)NCC23CC4CC(CC(C4)C2)C3)c1 [Example 8, 2-Chloro-5-[(2R)-3-(dimethylamino)-2-hydroxypropyl]-N-(tricyclo[3.3.1.1^3,7]dec-1-ylmethyl)-benzamide, hydrochloride]
Second: CNC[C@@H](O)CCc1ccc(Cl)c(C(=O)NCC23CC4CC(CC(C4)C2)C3)c1.Cl [Example 1, 2-Chloro-5-[(3S)-3-hydroxy-4-(methylamino)butyl]-N-(tricyclo[3.3.1.1^3,7]dec-1-ylmethyl)benzamide, hydrochloride]
The IC50 of the first is 2.5-fold lower: 3.98 nM for the first, 10 nM for the second.

tested on: not given; experiment: not given; conditions: not given

Going from `CNC[C@@H](O)Cc1ccc(Cl)c(C(=O)NCC23CC4CC(CC(C4)C2)C3)c1` (as salt: hydrochloride) to `CCNC[C@@H](O)Cc1ccc(Cl)c(C(=O)NCC23CC4CC(CC(C4)C2)C3)c1` (as salt: hydrochloride) [Example 14, 2-Chloro-5-[(2S)-3-(ethylamino)-2-hydroxypropyl]-N-(tricyclo [3.3.1.1^3,7]dec-1-ylmethyl)-benzamide, hydrochloride salt], the melting point rises from 196 °C to 214 °C.

Going from `CC(C)NC[C@H](O)Cc1ccc(Cl)c(C(=O)NCC23CC4CC(CC(C4)C2)C3)c1` (as salt: hydrochloride) to `CCNC[C@H](O)Cc1ccc(Cl)c(C(=O)NCC23CC4CC(CC(C4)C2)C3)c1` (as salt: hydrochloride), the melting point rises from 189 °C to 218 °C.

With `O=C(NCC12CC3CC(CC(C3)C1)C2)c1cc(C[C@@H](O)CNCCCO)ccc1Cl` (as salt: hydrochloride) the melting point was 225 °C.

For `CNC[C@@H](O)CCc1ccc(Cl)c(C(=O)NCC23CC4CC(CC(C4)C2)C3)c1.Cl` [Example 1, 2-Chloro-5-[(3S)-3-hydroxy-4-(methylamino)butyl]-N-(tricyclo[3.3.1.1^3,7]dec-1-ylmethyl)benzamide, hydrochloride], the melting point was > 200 °C (dec.).
